Source: PubChem BioAssay (NCI)
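Protocol summary: plate cells (96-well), add compound at 5 concentrations, incubate 48 h, interpolate endpoints linearly. Definition used: TGI = concentration required for complete inhibition of growth.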

Tests used:
Test in all cases: DTP human tumour cell line panel, 48 h
K-562 leukemia = system: K-562 leukemia
SR leukemia = system: SR leukemia
COLO 205 colon = system: COLO 205 colon
A498 renal = system: A498 renal
M19-MEL melanoma = system: M19-MEL melanoma
IGROV1 ovarian = system: IGROV1 ovarian
EKVX NSCLC = system: EKVX NSCLC
A549 NSCLC = system: A549 NSCLC
HL-60(TB) leukemia = system: HL-60(TB) leukemia
SNB-75 CNS = system: SNB-75 CNS
UO-31 renal = system: UO-31 renal
SF-295 CNS = system: SF-295 CNS
SK-MEL-5 melanoma = system: SK-MEL-5 melanoma
SK-MEL-28 melanoma = system: SK-MEL-28 melanoma
RPMI-8226 leukemia = system: RPMI-8226 leukemia
UACC-62 melanoma = system: UACC-62 melanoma
DLD-1 colon = system: DLD-1 colon
786-0 renal = system: 786-0 renal
DMS 273 small cell lung = system: DMS 273 small cell lung
SF-268 CNS = system: SF-268 CNS
ACHN renal = system: ACHN renal
TK-10 renal = system: TK-10 renal
SF-539 CNS = system: SF-539 CNS
NCI-H522 lung = system: NCI-H522 lung
MOLT-4 leukemia = system: MOLT-4 leukemia
LOX IMVI melanoma = system: LOX IMVI melanoma
HCC-2998 colon = system: HCC-2998 colon
HCT-15 colon = system: HCT-15 colon
OVCAR-3 ovarian = system: OVCAR-3 ovarian
XF 498 CNS = system: XF 498 CNS
HOP-92 NSCLC = system: HOP-92 NSCLC
NCI-H460 lung = system: NCI-H460 lung
HT29 colon = system: HT29 colon
SN12C renal = system: SN12C renal
OVCAR-8 ovarian = system: OVCAR-8 ovarian
NCI-H23 lung = system: NCI-H23 lung
LXFL 529 NSCLC = system: LXFL 529 NSCLC
SW-620 colon = system: SW-620 colon
M14 melanoma = system: M14 melanoma
NCI-H226 lung = system: NCI-H226 lung
OVCAR-5 ovarian = system: OVCAR-5 ovarian
CCRF-CEM leukemia = system: CCRF-CEM leukemia
SK-OV-3 ovarian = system: SK-OV-3 ovarian
SNB-78 CNS = system: SNB-78 CNS
CAKI-1 renal = system: CAKI-1 renal
MALME-3M melanoma = system: MALME-3M melanoma
SK-MEL-2 melanoma = system: SK-MEL-2 melanoma
OVCAR-4 ovarian = system: OVCAR-4 ovarian
DMS 114 small cell lung = system: DMS 114 small cell lung
HCT-116 colon = system: HCT-116 colon
U251 CNS = system: U251 CNS
HOP-18 NSCLC = system: HOP-18 NSCLC
UACC-257 melanoma = system: UACC-257 melanoma
HOP-62 NSCLC = system: HOP-62 NSCLC
KM20L2 colon = system: KM20L2 colon
SNB-19 CNS = system: SNB-19 CNS
KM12 colon = system: KM12 colon
RXF 393 renal = system: RXF 393 renal

## N#Cc1nc(Nc2ccc(Cl)cc2)sc1N
K-562 leukemia
  TGI: 48.6 µM
SR leukemia
  TGI: 11.6 µM
COLO 205 colon
  TGI: 47.7 µM
A498 renal
  TGI: 56 µM
M19-MEL melanoma
  TGI: > 100 µM
IGROV1 ovarian
  TGI: > 88.9 µM
EKVX NSCLC
  TGI: 83.2 µM
A549 NSCLC
  TGI: > 67.1 µM
HL-60(TB) leukemia
  TGI: > 76.7 µM
SNB-75 CNS
  TGI: > 71.1 µM
UO-31 renal
  TGI: 26.8 µM
SF-295 CNS
  TGI: 42 µM
SK-MEL-5 melanoma
  TGI: 6.41 µM
SK-MEL-28 melanoma
  TGI: > 70.8 µM
RPMI-8226 leukemia
  TGI: > 65.6 µM
UACC-62 melanoma
  TGI: 42.8 µM
DLD-1 colon
  TGI: > 100 µM
786-0 renal
  TGI: 33.7 µM
DMS 273 small cell lung
  TGI: > 63.8 µM
SF-268 CNS
  TGI: > 77.9 µM
ACHN renal
  TGI: 23.6 µM
TK-10 renal
  TGI: > 76.6 µM
SF-539 CNS
  TGI: 9.46 µM
NCI-H522 lung
  TGI: 11.3 µM
MOLT-4 leukemia
  TGI: 29.2 µM
LOX IMVI melanoma
  TGI: 13.7 µM
HCC-2998 colon
  TGI: 14.8 µM
HCT-15 colon
  TGI: > 94.6 µM
OVCAR-3 ovarian
  TGI: > 61.8 µM
XF 498 CNS
  TGI: > 100 µM
HOP-92 NSCLC
  TGI: 52.1 µM
NCI-H460 lung
  TGI: > 74.7 µM
HT29 colon
  TGI: > 51.9 µM
SN12C renal
  TGI: > 69.1 µM
OVCAR-8 ovarian
  TGI: > 79.4 µM
NCI-H23 lung
  TGI: 13.2 µM
LXFL 529 NSCLC
  TGI: 22.7 µM
SW-620 colon
  TGI: > 69.1 µM
M14 melanoma
  TGI: > 85.7 µM
NCI-H226 lung
  TGI: > 71.7 µM
OVCAR-5 ovarian
  TGI: > 46.4 µM
CCRF-CEM leukemia
  TGI: > 100 µM
SK-OV-3 ovarian
  TGI: > 100 µM
SNB-78 CNS
  TGI: > 100 µM
CAKI-1 renal
  TGI: 45.1 µM
MALME-3M melanoma
  TGI: 66.1 µM
SK-MEL-2 melanoma
  TGI: 47.3 µM
OVCAR-4 ovarian
  TGI: > 72.5 µM
DMS 114 small cell lung
  TGI: 73.7 µM
HCT-116 colon
  TGI: > 100 µM
U251 CNS
  TGI: 34.1 µM
HOP-18 NSCLC
  TGI: > 100 µM
UACC-257 melanoma
  TGI: 31.1 µM
HOP-62 NSCLC
  TGI: 46 µM
KM20L2 colon
  TGI: > 52 µM
SNB-19 CNS
  TGI: > 100 µM
KM12 colon
  TGI: > 86.5 µM

## CCCCCCCCCCCCCC(=O)OC1C(CO)OC(=O)C1O (stereo unspecified)
K-562 leukemia
  TGI: > 100 µM
COLO 205 colon
  TGI: > 100 µM
A498 renal
  TGI: > 100 µM
M19-MEL melanoma
  TGI: > 100 µM
IGROV1 ovarian
  TGI: > 100 µM
EKVX NSCLC
  TGI: > 100 µM
A549 NSCLC
  TGI: > 100 µM
HL-60(TB) leukemia
  TGI: > 100 µM
SNB-75 CNS
  TGI: > 100 µM
UO-31 renal
  TGI: > 100 µM
SF-295 CNS
  TGI: > 100 µM
SK-MEL-5 melanoma
  TGI: > 100 µM
RPMI-8226 leukemia
  TGI: > 100 µM
UACC-62 melanoma
  TGI: > 100 µM
DLD-1 colon
  TGI: > 100 µM
786-0 renal
  TGI: > 100 µM
DMS 273 small cell lung
  TGI: > 100 µM
SF-268 CNS
  TGI: > 100 µM
ACHN renal
  TGI: > 100 µM
TK-10 renal
  TGI: > 100 µM
SF-539 CNS
  TGI: > 100 µM
MOLT-4 leukemia
  TGI: > 100 µM
LOX IMVI melanoma
  TGI: > 100 µM
HCC-2998 colon
  TGI: > 100 µM
HCT-15 colon
  TGI: > 100 µM
OVCAR-3 ovarian
  TGI: > 100 µM
XF 498 CNS
  TGI: > 100 µM
HOP-92 NSCLC
  TGI: 95.9 µM
NCI-H460 lung
  TGI: > 100 µM
HT29 colon
  TGI: > 100 µM
SN12C renal
  TGI: > 100 µM
OVCAR-8 ovarian
  TGI: > 100 µM
NCI-H23 lung
  TGI: > 100 µM
LXFL 529 NSCLC
  TGI: > 100 µM
SW-620 colon
  TGI: > 100 µM
M14 melanoma
  TGI: > 100 µM
OVCAR-5 ovarian
  TGI: > 100 µM
CCRF-CEM leukemia
  TGI: > 100 µM
SK-OV-3 ovarian
  TGI: > 100 µM
SNB-78 CNS
  TGI: > 100 µM
CAKI-1 renal
  TGI: > 100 µM
MALME-3M melanoma
  TGI: > 100 µM
SK-MEL-2 melanoma
  TGI: > 100 µM
OVCAR-4 ovarian
  TGI: > 100 µM
DMS 114 small cell lung
  TGI: > 100 µM
HCT-116 colon
  TGI: > 100 µM
U251 CNS
  TGI: > 100 µM
HOP-18 NSCLC
  TGI: > 100 µM
UACC-257 melanoma
  TGI: > 100 µM
HOP-62 NSCLC
  TGI: > 100 µM
KM20L2 colon
  TGI: > 100 µM
RXF 393 renal
  TGI: > 100 µM
SNB-19 CNS
  TGI: > 100 µM
KM12 colon
  TGI: > 100 µM
